BindingDB's records for doi:10.1016/j.ejmech.2013.03.032 (University of Messina, 2013)

The molecules below were run against T1, Proteasome subunit beta type-1 (Homo sapiens, UniProt P20618) (assay: Inhibition of human 20S proteasome post-glutamyl peptide hydrolyzing activity using Z-Leu-Leu-Glu-AMC as substrate measured over 10 mins by fluorescence assay).
T1 sequence (P20618 whole entry): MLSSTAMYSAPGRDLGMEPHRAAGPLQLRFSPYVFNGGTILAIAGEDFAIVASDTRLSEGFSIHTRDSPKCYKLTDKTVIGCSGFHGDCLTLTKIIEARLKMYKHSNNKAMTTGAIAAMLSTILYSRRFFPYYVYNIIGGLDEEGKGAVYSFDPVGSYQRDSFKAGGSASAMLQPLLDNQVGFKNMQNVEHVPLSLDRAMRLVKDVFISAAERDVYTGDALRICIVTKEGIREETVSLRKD

| Ki | Structure (SMILES) |
| --- | --- |
| 0.52 µM | CC(C)C[C@H](NC(=O)Cn1ccc(N2CCOCC2)cc1=O)B(O)O |
| 1.42 µM | CC(C)C[C@H](NC(=O)Cn1ccc(N2CCCCC2)cc1=O)B(O)O |
| 1.38 µM | CC(C)C[C@H](NC(=O)Cn1ccccc1=O)B(O)O |
| 3.9 µM | CC(C)C[C@H](NC(=O)Cn1ccc2c(c1=O)CCCN2C)B(O)O |

More lines, now with the values behind:

| Structure (SMILES) | Ki |
| --- | --- |
| CC(C)C[C@H](NC(=O)Cn1ccc(Nc2ccccc2)cc1=O)B(O)O | 5.14 µM |
| CCN(CC)c1ccn(CC(=O)N[C@@H](CC(C)C)B(O)O)c(=O)c1 | 4.42 µM |
| CC(C)C[C@H](NC(=O)[C@H](C)n1ccc2ncccc2c1=O)B(O)O | 13.6 µM |
